Results as given in BigSolDB 2.1.

c1ccc2c(c1)Cc1ccccc1-2
Conditions	solubility (mole fraction)
in ethanol, 278.98 K	0.00372
in ethanol, 283.99 K	0.00455
in ethanol, 289.01 K	0.00554
in ethanol, 294.08 K	0.00668
in ethanol, 298.35 K	0.00802
in ethanol, 303.36 K	0.00973
in ethanol, 308.77 K	0.0118
in ethanol, 313.17 K	0.0139
in ethanol, 319.27 K	0.0177
in ethanol, 324.95 K	0.0216
in isopropanol, 288.28 K	0.00221
in isopropanol, 293.69 K	0.00313
in isopropanol, 299.5 K	0.00453
in isopropanol, 303.17 K	0.00565
in isopropanol, 309.06 K	0.00802
in isopropanol, 313.78 K	0.0105
in isopropanol, 318.24 K	0.0135
in isopropanol, 323.17 K	0.0179
in isopropanol, 328.25 K	0.0237
in isopropanol, 333.45 K	0.0314
in n-butanol, 284.27 K	0.0059
in n-butanol, 288.82 K	0.00724
in n-butanol, 293.76 K	0.00906
in n-butanol, 298.88 K	0.0113
in n-butanol, 304.06 K	0.0139
in n-butanol, 308.28 K	0.0168
in n-butanol, 313.93 K	0.0212
in n-butanol, 318.16 K	0.0251
in n-butanol, 323.16 K	0.0304
in n-butanol, 328.25 K	0.037
in n-butanol, 333.35 K	0.0458
in n-butanol, 338.35 K	0.0558
in toluene, 283.27 K	0.0634
in toluene, 288.77 K	0.0819
in toluene, 293.72 K	0.102
in toluene, 298.89 K	0.13
in toluene, 303.17 K	0.154
in toluene, 308.81 K	0.201
in toluene, 314.04 K	0.252
in toluene, 319.01 K	0.308
in toluene, 323.28 K	0.367
